Legend:
[1] = system: Phytophthora infestans; format: in vivo; conditions: tomato plants, protective spray, active ingredient concentration 100 ppm, evaluation 7 days after inoculation; 0% = control, 100% = no infection
[2] = for logp [a]: pH 2.7; for logp [b]: pH 7.8

Structure (SMILES)	Eff. % [1] [%]	logp [a] [2]	logp [b] [2]
CC(C)ON=Cc1cccc(C2CC(c3csc(C4CCN(C(=O)Cn5nc(C(F)F)cc5C(F)F)CC4)n3)=NO2)c1 (mixture of isomers) [I-6]	100		
Cc1cc(C(F)(F)F)nn1CC(=O)N1CCC(c2nc(C3=NOC(c4cccc(C=NOC(C)C)c4)C3)cs2)CC1 (mixture of isomers) [I-8]	100		
CC(=NOC(C)C)c1cccc(C2CC(c3csc(C4CCN(C(=O)Cn5nc(C(F)(F)F)cc5C)CC4)n3)=NO2)c1 (mixture of isomers) [I-9]	100		
CCON=Cc1cccc(C2CC(c3csc(C4CCN(C(=O)Cn5nc(C(F)(F)F)cc5C)CC4)n3)=NO2)c1 (mixture of isomers) [I-11]	100	3.8[a]	
CCON=Cc1cccc(C2CC(c3csc(C4CCN(C(=O)Nc5cc(Cl)ccc5C)CC4)n3)=NO2)c1 (mixture of isomers) [I-12]	95		
Cc1ccc(Cl)cc1NC(=O)N1CCC(c2nc(C3=NOC(c4cccc(C=NOC(C)C)c4)C3)cs2)CC1 (mixture of isomers) [I-13]	100	4.4[a]	
CC(=NOC(C)C)c1cccc(C2CC(c3csc(C4CCN(C(=O)Cn5nc(C(F)F)cc5C(F)F)CC4)n3)=NO2)c1 (mixture of isomers) [I-20]	100		
CCON=Cc1cccc(C2CC(c3csc(C4CCN(C(=O)Cn5nc(C(F)F)cc5C(F)F)CC4)n3)=NO2)c1 (mixture of isomers) [I-24]	100		
CC(=NOC(C)C)c1ccccc1C1CC(c2csc(C3CCN(C(=O)Cn4nc(C(F)F)cc4C(F)F)CC3)n2)=NO1 (mixture of isomers) [I-28]	100		
CC(=NOC(C)C)c1ccccc1C1CC(c2csc(C3CCN(C(=O)Cn4nc(C(F)(F)F)cc4C)CC3)n2)=NO1 (mixture of isomers) [I-30]	100		
CCON=Cc1ccccc1C1CC(c2csc(C3CCN(C(=O)Nc4cc(Cl)ccc4C)CC3)n2)=NO1 (mixture of isomers) [I-33]	100		
Cc1ccc(Cl)cc1NC(=O)N1CCC(c2nc(C3=NOC(c4ccccc4C=NOC(C)C)C3)cs2)CC1 (mixture of isomers) [I-37]	100		
Cc1cc(C(F)(F)F)nn1CC(=O)N1CCC(c2nc(C3=NOC(c4ccccc4C=NOC(C)C)C3)cs2)CC1 (mixture of isomers) [I-39]	100		
CC(C)ON=Cc1ccccc1C1CC(c2csc(C3CCN(C(=O)Cn4nc(C(F)F)cc4C(F)F)CC3)n2)=NO1 (mixture of isomers) [I-42]	100		
COCC[S+]([O-])Cc1ccccc1C1CC(c2csc(C3CCN(C(=O)Cn4nc(C(F)F)cc4C(F)F)CC3)n2)=NO1 (mixture of isomers) [I-56]	94	2.52[a]	
CC1(c2ccccc2OS(C)(=O)=O)CC(c2csc(C3CCN(C(=O)Cn4nc(C(F)F)cc4C(F)F)CC3)n2)=NO1 (racemic) [I-43]	94	3.16[a],	3.09[b]
Cc1cc(C(F)F)nn1CC(=O)N1CCC(c2nc(C3=NOC(C)(c4ccccc4OS(C)(=O)=O)C3)cs2)CC1 (racemic) [I-44]	94	2.86[a],	2.8[b]
COCCS(=O)(=O)Cc1ccccc1C1CC(c2csc(C3CCN(C(=O)Cn4nc(C(F)(F)F)cc4C)CC3)n2)=NO1 (racemic) [I-45]	94	3.64[a]	
Cc1ccc(S(=O)(=O)Oc2ccccc2C2(C)CC(c3csc(C4CCN(C(=O)Cn5nc(C(F)F)cc5C(F)F)CC4)n3)=NO2)cc1 (racemic) [I-48]	94	4.31[a],	4.15[b]
Cc1ccc(S(=O)(=O)Oc2ccccc2C2(C)CC(c3csc(C4CCN(C(=O)Cn5nc(C(F)F)cc5C)CC4)n3)=NO2)cc1 (racemic) [I-49]	94	4.05[a],	3.9[b]
CS(=O)(=O)Oc1ccc(F)c(C2CC(c3csc(C4CCN(C(=O)Cn5nc(C(F)F)cc5C(F)F)CC4)n3)=NO2)c1F (racemic) [I-50]	94	2.95[a],	2.88[b]
Cc1cc(C(F)F)nn1CC(=O)N1CCC(c2nc(C3=NOC(c4ccccc4OS(C)(=O)=O)C3)cs2)CC1 (racemic) [I-51]	97	2.59[a],	2.61[b]
Cc1ccc(C)c(NC(=O)N2CCC(c3nc(C4=NOC(c5c(Cl)cccc5OS(C)(=O)=O)C4)cs3)CC2)c1 (racemic) [I-52]	94	3.35[a],	3.25[b]
N#CCOc1ccc(Cl)cc1C1CC(c2csc(C3CCN(C(=O)Cn4nc(C(F)F)cc4C(F)F)CC3)n2)=NO1 (racemic) [I-58]		3.27[a],	3.23[b]
CS(=O)(=O)Oc1ccc(Cl)cc1C1CC(c2csc(C3CCN(C(=O)Cn4nc(C(F)F)cc4C(F)F)CC3)n2)=NO1 (racemic) [I-59]		3.27[a],	3.25[b]
O=C(Cn1nc(C(F)F)cc1C(F)F)N1CCC(c2nc(C3=NOC(c4ccccc4OCC#Cc4cccc5ccccc45)C3)cs2)CC1 (centres unmarked) [I-2]	100	4.81[a],	4.68[b]

Structure (SMILES)	Eff. % [1] [%]	logp [a] [2]	logp [b] [2]
Cc1ccc(C2CC(c3csc(C4CCN(C(=O)Cn5nc(C(F)(F)F)cc5C)CC4)n3)=NO2)c(OS(C)(=O)=O)c1 (centres unmarked) [I-66]		3.26[a],	3.21[b]
Cc1ccc(OS(C)(=O)=O)c(C2CC(c3csc(C4CCN(C(=O)Cn5nc(C(F)F)cc5C(F)F)CC4)n3)=NO2)c1 (centres unmarked) [I-67]		3.22[a],	3.11[b]
C#CCOCc1cccc(F)c1C1CC(c2csc(C3CCN(C(=O)Cn4nc(C(F)F)cc4C(F)F)CC3)n2)=NO1 (centres unmarked) [I-68]		3.3[a]	
CC(=O)OCc1cccc(F)c1C1CC(c2csc(C3CCN(C(=O)Cn4nc(C(F)F)cc4C(F)F)CC3)n2)=NO1 (centres unmarked) [I-69]		3.12[a]	
CS(=O)(=O)Oc1cc(Cl)ccc1C1CC(c2csc(C3CCN(C(=O)Cn4nc(C(F)F)cc4C(F)F)CC3)n2)=NO1 (centres unmarked) [I-70]	97	3.27[a],	3.27[b]
N#CCOc1cc(Cl)ccc1C1CC(c2csc(C3CCN(C(=O)Cn4nc(C(F)F)cc4C(F)F)CC3)n2)=NO1 (centres unmarked) [I-71]	100	3.23[a],	3.22[b]
Cc1ccc(C2CC(c3csc(C4CCN(C(=O)Cn5nc(C(F)F)cc5C(F)F)CC4)n3)=NO2)c(OS(C)(=O)=O)c1 (centres unmarked) [I-72]		3.2[a],	3.12[b]
Cc1cc(C(F)F)n(CC(=O)N2CCC(c3nc(C4=NOC(c5ccccc5OS(C)(=O)=O)C4)cs3)CC2)n1 (centres unmarked) [I-73]		2.65[a],	2.58[b]
Cc1cc(C(F)(F)F)nn1CC(=O)N1CCC(c2nc(C3=NOC(c4c(F)ccc(OS(C)(=O)=O)c4F)C3)cs2)CC1 (centres unmarked) [I-79]		3.02[a],	2.94[b]
N#CCOc1ccc(F)c(C2CC(c3csc(C4CCN(C(=O)Cn5nc(C(F)F)cc5C(F)F)CC4)n3)=NO2)c1F (centres unmarked) [I-80]		2.96[a],	2.85[b]
COc1cccc(OS(C)(=O)=O)c1C1(C)CC(c2csc(C3CCN(C(=O)Cn4nc(C(F)F)cc4C(F)F)CC3)n2)=NO1 (centres unmarked) [I-88]		3.17[a],	3.11[b]
COCC[S+]([O-])Cc1ccccc1C1CC(c2csc(C3CCN(C(=O)Cn4nc(C(F)(F)F)cc4C)CC3)n2)=NO1 (centres unmarked) [I-90]		2.53[a]	
Cc1cc(OS(C)(=O)=O)c(C2(C)CC(c3csc(C4CCN(C(=O)Cn5nc(C(F)F)cc5C(F)F)CC4)n3)=NO2)cc1C (centres unmarked) [I-91]		3.63[a],	3.58[b]
COc1ccc(OS(C)(=O)=O)c(C2(C)CC(c3csc(C4CCN(C(=O)Cn5nc(C(F)F)cc5C(F)F)CC4)n3)=NO2)c1OC (centres unmarked) [I-92]		3.28[a],	3.25[b]
C=CCOCc1ccccc1C1CC(c2csc(C3CCN(C(=O)Cn4nc(C(F)(F)F)cc4C)CC3)n2)=NO1 (centres unmarked) [I-93]	95	3.84[a]	
C=CCOCc1ccccc1C1CC(c2csc(C3CCN(C(=O)Cn4nc(C(F)F)cc4C(F)F)CC3)n2)=NO1 (centres unmarked) [I-94]	100	3.63[a]	
Cc1cc(C(F)(F)F)nn1CC(=O)N1CCC(c2nc(C3=NOC(c4cccc(OCC#N)c4)C3)cs2)CC1 (centres unmarked) [I-95]	100	3.06[a],	2.97[b]
Cc1cc(C(F)(F)F)nn1CC(=O)N1CCC(c2nc(C3=NOC(c4ccc(OS(C)(=O)=O)cc4)C3)cs2)CC1 (centres unmarked) [I-96]	95	2.9[a],	2.81[b]
CCS(=O)(=O)Oc1ccc(C2CC(c3csc(C4CCN(C(=O)Cn5nc(C(F)F)cc5C(F)F)CC4)n3)=NO2)cc1 (centres unmarked) [I-105]		2.97[a],	2.96[b]
O=C(Cn1nc(C(F)F)cc1C(F)F)N1CCC(c2nc(C3=NOC(c4ccc(OS(=O)(=O)C5CC5)cc4)C3)cs2)CC1 (centres unmarked) [I-106]		3.06[a],	3.05[b]
Cc1ccc(OCC#N)c(C2CC(c3csc(C4CCN(C(=O)Cn5nc(C(F)F)cc5C(F)F)CC4)n3)=NO2)c1 (centres unmarked) [I-141]		3.17[a],	3.15[b]
Cc1ccc(C2CC(c3csc(C4CCN(C(=O)Cn5nc(C(F)(F)F)cc5C)CC4)n3)=NO2)c(OCC#N)c1 (centres unmarked) [I-142]		3.29[a],	3.22[b]
Cc1cc(C(F)F)nn1CC(=O)N1CCC(c2nc(C3=NOC(c4ccccc4OCC#N)C3)cs2)CC1 (centres unmarked) [I-143]		2.6[a],	2.61[b]
Cc1ccc(C2CC(c3csc(C4CCN(C(=O)Cn5nc(C(F)F)cc5C(F)F)CC4)n3)=NO2)c(OCC#N)c1 (centres unmarked) [I-144]		3.15[a],	3.13[b]
CS(=O)(=O)Oc1c(Cl)cccc1C1CC(c2csc(C3CCN(C(=O)Cn4nc(C(F)F)cc4C(F)F)CC3)n2)=NO1 (centres unmarked) [I-145]		3.19[a],	3.19[b]
N#CCOc1c(Cl)cccc1C1CC(c2csc(C3CCN(C(=O)Cn4nc(C(F)F)cc4C(F)F)CC3)n2)=NO1 (centres unmarked) [I-146]		3.14[a],	3.26[b]

— patent US9930890B2 (priority 2010, dated 2018)
